According to patent US12011423B2, “S-alkylisothiouronium derivatives for treating uterine hypercontractility disorders” (FORAVISET LTD., priority 2007, dated 2024):

How the values were obtained:
[1] = tested on: women with uterine myoma; conditions: unpublished studies; cited from earlier work
[2] = tested on: women patients having primary dysmenorrhea; assay: Effect on pelvic pains in women having primary dysmenorrhea (Example 4, group II); format: in vivo; conditions: intravaginal administration
Protocol: Sixty-ninewomen having symptomatic uterine myoma or primary dysmenorrhea were enrolled to this study. The women were treated with vaginal suppositories of S-ethylisothiouronium diethylphosphate (100 mg of S-ethylisothiouronium diethylphosphate in 2 gr of Suppocire® per day, applied in the posterior vaginal fornix).
In addition, the effect of S-ethylisothiouronium diethylphosphate on pelvic pains was evaluated in 38 women patients having primary dysmenorrhea (group II). The average age of the patients was 24.8±4.1 years. All the 38 patients had experienced at least 6 painful menstrual cycles prior to their inclusion in the study. The duration of the menstrual cycle in all cases was normal, i.e., of 21-35 days, with the menstruation lasting 3-7 days. Further, none of the patients was treated with oral contraceptives for at least 6 months before enrollment. The patients were eligible for the study following the confirmation of normal hematological and biochemical indexes and exclusion of antecedent gynecological surgical procedures.
To evaluate the intensity of pain, the patients reported the pain intensity at the beginning of the study, during, and at the termination of the medical management using one of the following terms: absence of pain; greatly diminished pain; slightly diminished pain; similar pain as of the previous treatment; and intensification of pain. […]

[3] = tested on: Wistar male rats; assay: Tail-flick test, pain under thermal stimulation (Example 2); format: in vivo
Protocol: The study was carried out on Wistar male rats (body weight of 210 g). The experiment was carried out on 30 rats divided into 3 groups of 10 animals each. The presence of pain was determined using the Tail-flick test, This method is based on monitoring the reaction time for the typical tail-withdrawal reflex as a result of thermal stimulation. First, the temperature (° C.) at which rat tails was withdrawn was determined, thus identifying the thermal level that caused pain. One hour later, the rats were injected intraperitoneally with S-ethylisothiouronium diethylphosphate in 0.9% NaCl. One group (10 rats) was injected with 5 mg/kg body weigh of S-ethylisothiouronium diethylphosphate, whilst the second and third groups (10 rats each) were injected with 10 and 20 mg/kg body weight, respectively.

[4] = tested on: women suffering from primary or secondary dysmenorrhea; assay: Effect of vaginal suppositories on pain in primary or secondary dysmenorrhea (Example 3); format: in vivo
Protocol: Vaginal suppositories containing S-ethylisothiouronium diethylphosphate (100 mg each/day) were applied to 28 women suffering from primary or secondary dysmenorrhea.

[5] = tested on: women showing abnormal uterine bleeding; assay: Effect of vaginal suppositories on abnormal uterine bleeding in women (Example 1); format: in vivo
Protocol: Thirty-six women showing abnormal uterine bleeding were enrolled to this study. Each woman received one suppository of S-ethylisothiouronium diethylphosphate (100 mg of S-ethylisothiouronium diethylphosphate in 2 gr of Suppocire®, a suppository base obtained by esterification of hydrogenated palm oil and hydrogenated palm kelnel oil) per day, applied in the posterior vaginal fornix.

[6] = tested on: women with uterine myoma; assay: S-ethylisothiouronium bromide in abnormal uterine hemorrhages and pelvic pains associated with uterine myoma (unpublished studies) and comparison; format: in vivo; conditions: found to be preferable over S-ethylisothiouronium bromide
[7] = 24 hours after beginning of treatment, 100 mg/day vaginal suppository, 28 women

Row | Molecule | duration of effect and side effects [1] | effect on abnormal uterine hemorrhages and pelvic pains [1] | treated women in whom uterine cramps were abrogated [2] | increase of thermal level for tail withdrawal ([3]; 5 mg/kg intraperitoneal) | thermal level for tail withdrawal after injection ([3]; 5 mg/kg intraperitoneal, before injection 73+1.26° C.) | increase of pain reception level under thermal stimulation ([3]; 10 mg/kg body weight intraperitoneal) | pain reception level under thermal stimulation after injection ([3]; 10 mg/kg body weight intraperitoneal, before injection 73+3.63° C.) | increase of pain reception level ([3]; 20 mg/kg body weight intraperitoneal) [%] | pain reception level after injection ([3]; 20 mg/kg body weight intraperitoneal, before injection 73.5±2.07) [°C] | analgesic activity (conclusion in words) ([3]; tail-flick test, 5-20 mg/kg intraperitoneal) | complete disappearance of the pain [4, 7] [%] | significant decrease in the intensity of the pain [4, 7] | eradication of pain ([4]; 48 hours after beginning of treatment, after a second suppository) | complete disappearance of pathological uterine bleeding ([5]; after six suppositories (100 mg each), intravaginally, one per day, 36 women) | patients reporting menstrual cycles with a normal duration and interval ([5]; over the course of three consecutive months) [%] | intensity of bleeding moderately reduced, full haemostatic effect not reached ([5]; patients, vaginal suppositories 100 mg per day) [%] | Haemostasis obtained, on average, time from the start of treatment ([5]; vaginal suppositories 100 mg per day) [h] | comparison with S-ethylisothiouronium bromide [6]
1 | Br.CCSC(=N)N [S-ethylisothiouronium bromide] | short-duration effect accompanied with side effects such as digestive disturbances and complications | effective in reducing the abnormal uterine hemorrhages and pelvic pains | – | – | – | – | – | – | – | – | – | – | – | – | – | – | – | –
2 | S-ethylisothiouronium diethylphosphate | – | – | about 95% | about 21% | 89.01+5.11 °C | about 31% | 96.4+3.98 °C | 59 | 16.8±9.51 | potent analgesic agent | 39.3 | 60.7 % of the cases | fully eradicated in all treated women | 87.8 % of cases | 94.4 | 12.2 | 40 to 58 | longer bioactivity, higher efficacy, and little or no side-effects
